# Entries after “also recorded” stand apart in the source; their conditions may differ.
# What was measured:
# [1] = tested on: Escherichia coli ATCC 25922 and E. coli BAA 3051; assay: Antibacterial MIC assay, E. coli; format: cell-based; conditions: MHB, serial dilution up to 128 µM, 6 h growth, OD read-out, MIC = concentration at which growth surpassed 10%; result in words
# Procedure: (§1) For the antimicrobial assays, the strains used were as follows: Staphylococcus aureus ATCC 29213, Escherichia coli ATCC 25922 and E. coli BAA 3051.
# (§2) Peptides were assessed for their MIC against various bacterial strains. Peptides were serially diluted at two x final concentration across a 96 well plate with the final well containing no peptide and control lanes of no antibacterial agent, and lanes of no bacteria or antibacterial agent. All dilutions were in sterile MHB. Each bacterial strain was grown overnight before inoculation of a fresh culture in the morning of assay, the culture was allowed to grow until OD600 = ∼1.0 before dilution to achieve 2 × 10^6 CFU/ml based of the equations 2e+7e^(2.9218∗OD600) for E. coli and 2e+7e^(2.5537∗OD600). Bacteria were added 1:1 to wells containing the serially diluted peptide(s) and were allowed to grow for 6 h, in regards to E. coli, or 24 h, in regards to S. aureus, before measuring OD620 on a plate reader. Bacterial growth per well was determined using the following equation: Bacterial growth %= (OD600 sample−OD600 negative control)/(OD600 positive control−OD600 negative control)×100
# (§3) The MIC breakpoint was determined using GraphPad PRISM observing for the concentration at which growth surpassed 10%.
# FIGURE 2 Minimum inhibitory concentration of potential PrAMPs. Each of the potential PrAMPs were assayed for MIC against E. coli ATCC 25922 (A), E. coli BACC 3051 (B), and S. aureus 29213 (C), up to 128 µM in MHB media.
# DnaK [2] = conditions: peptide 300 µM; 0.3 µM DnaK; 20 mM TRIS, 150 mM KCl, 5 mM MgCl2, 1 mM ATP, pH 7.5; 1 h at 37°C; Malachite Green, A620; result in words (Figure 1)
# Procedure: Peptides were assessed for their capacity to inhibit the ATPase activity of DnaK by a colorimetric assay. Peptide at 300 µM concentration were assayed in 100 µl format where each reaction contained 0.3 µM of DnaK in DnaK assay buffer (20 mM TRIS, 150 mM KCl, 5 mM MgCl2, 1 mM ATP, pH 7.5). After 60 min, 20 µl samples were taken (3 x per reaction) for assessment by Malachite Green Phosphate assay kit (Sigma—MAK307). The samples were added to 80 µl of Milli-Q water in a 96 well plate, before adding 20 µl of staining solution, and incubated at room temperature for 30 min before measuring A620 on a plate reader ([Zahn et al., 2013]). A negative control was included for each peptide where the same assay conditions are used in the absence of DnaK. The relative activity of DnaK in the presence of each of the putative DnaK binding peptides was assessed using the following equation: DnaKacitivity %= (OD620 sample−OD620 negative control)/(OD620 positive control−OD620 negative control) × 100
# We selected four potential PrAMPs from the list of newly identified PrAMPs for evaluation. […] Each was chemically synthesized, purified, and exchanged into HCl salt prior to investigation of antimicrobial properties (Supplementary Information, Supplementary Figure S1). The ability of the potential PrAMPs to modulate the activity of DnaK was assessed at 300 µM in vitro through a colorimetric assay with a known binder of DnaK, oncocin, as a positive control peptide (Figure 1).
# Each was incubated with DnaK for 1 h at 37°C and the free phosphate generated was detected with a Malachite Green-based stain. Activities are reported in % activity relative to DnaK positive and DnaK negative samples with constraints at 0% activity. All peptides were assayed at 300 µM. One-way ANOVA followed by Dunnett’s multiple comparisons test was performed to compare the control (DnaK) to each of the peptides, p < 0.05 (*) and p < 0.001 (**) are indicated.
# [3] = tested on: Staphylococcus aureus ATCC 29213; assay: Antibacterial MIC assay, S. aureus; format: cell-based; conditions: MHB, up to 128 µM, 24 h growth, OD read-out; result in words
# Procedure: as §1, §2, §3
# FIGURE 2 Minimum inhibitory concentration of potential PrAMPs. […]
# E. coli ATCC 25922 = assay: MIC of peptide combinations (synergy); format: cell-based, Escherichia coli; conditions: equimolar combination with oncocin or P9, Figure 3
# Procedure: as §2, §3
# One potential reason is that these peptides are unable to access the cytoplasm of the cell. Consequently, the synergistic capacity of PP30, attacin-C, and antibacterial napin with oncocin or P9 was examined (Figure 3).
# (A) MIC assessment of oncocin with/without antibacterial napin/PP30/attacin-C. (B) MIC assessment of P9 with/without antibacterial napin/PP30/attacin-C. Each peptide is present in equimolar concentration with the individual concentration shown in the X axis.
# E. coli = conditions: Gram-negative bacterium; ref Ngai and Ng, 2004; cited from earlier work
# Procedure: (§4) It is interesting to note that the peptides tested which inhibit DnaK are in fact not antimicrobial at concentrations of 128 µM or less. This may be because the peptides act in vivo as part of a complex multi-peptide cocktail with synergistic effects.
# Bacillus subtilis = conditions: Gram-positive bacterium; ref Ngai and Ng, 2004; cited from earlier work
# Procedure: as §4
# DnaK [4] = conditions: ref Krizsan et al., 2014; cited from earlier work
# From the text: Recently, we assessed a new set of criteria for PrAMPs and scanned the DRAMP database (http://dramp.cpu-bioinfor.org/) to detect novel PrAMPs based on similarity to known DnaK inhibitors ([Welch et al., 2020]). […] Here, we undertook screening of these putative new ...
# bacterial membrane = conditions: ref Shen et al., 2010; cited from earlier work
# From the text: This dual mode of action of PP30, membrane lysis and DnaK […], is novel and unreported for other native PrAMPs.
Sequence,Antimicrobial activity (MIC assessment) against E. coli [1],"Effect on DnaK activity (ATP hydrolysis), % activity relative to DnaK positive and negative samples (DnaK [2])",Antimicrobial activity (MIC assessment) against S. aureus [3],Synergy in combination treatment (MIC) (E. coli ATCC 25922),Activity against E. coli (E. coli),Activity against Bacillus subtilis (Bacillus subtilis),DnaK binding (DnaK [4]),Membrane-lytic action (bacterial membrane)
"PAQPFRFPKHPQGPQTRPPI [Antibacterial napin, predicted PrAMP from the DRAMP database, chemically synthesized 20-residue peptide]",inactive; also recorded: lack of direct antimicrobial activity,inhibit DnaK activity,inactive,no synergistic effects,inactive,active,,
"QRPYTQPLIYYPPPPTPPRIYRA [Attacin-C, predicted PrAMP from the DRAMP database, chemically synthesized 23-residue peptide]",lack of direct antimicrobial activity,inhibit DnaK activity,,no synergistic effects,,,,
RFIPPILRPPVRPPFRPPFRPPFRPPPIIRFFGG [P9],potent antimicrobial activity,increases the ATP hydrolysis of DnaK,,,,,,
VDKPPYLPRPRPPRRIYNR [Oncocin],,,,,,,DnaK binder,
"YVPPVQKPHPNGPKFPTFP [PP30, predicted PrAMP from the DRAMP database, chemically synthesized 19-residue peptide]",has not however resulted in observable MICs; also recorded: lack of direct antimicrobial activity,inhibit DnaK activity,,no synergistic effects,,,,membrane-lytic
